Experiments:
Chilo suppressalis [1] = assay: Potentiation of pirimiphos-methyl-induced insecticidal activity against OP-resistant Chilo suppressalis Hata-f (rice stem borer) assessed as synergistic ratio at 1:1 pirimiphos-methyl to compound ratio relative to pirimiphos-methyl alone; format: functional
Chilo suppressalis [2] = assay: Potentiation of fenitrothion-induced insecticidal activity against OP-resistant Chilo suppressalis Hata-f (rice stem borer) assessed as synergistic ratio at 1:10 fenitrothion to compound ratio relative to fenitrothion alone; format: functional
Chilo suppressalis [3] = assay: Potentiation of pirimiphos-methyl-induced insecticidal activity against OP-resistant Chilo suppressalis Hata-f (rice stem borer) assessed as synergistic ratio at 1:5 pirimiphos-methyl to compound ratio relative to pirimiphos-methyl alone; format: functional
Chilo suppressalis [4] = assay: Potentiation of fenitrothion-induced insecticidal activity against OP-susceptible Chilo suppressalis (rice stem borer) S strain assessed as synergistic ratio at 1:10 fenitrothion to compound ratio relative to fenitrothion alone; format: functional
Chilo suppressalis [5] = assay: Potentiation of pirimiphos-methyl-induced insecticidal activity against OP-resistant Chilo suppressalis Hata-f (rice stem borer) assessed as synergistic ratio at 1:10 pirimiphos-methyl to compound ratio relative to pirimiphos-methyl alone; format: functional
Chilo suppressalis [6] = assay: Insecticidal activity against OP-susceptible Chilo suppressalis S (rice stem borer) strain assessed as mortality measured after 24 hr; format: functional
Chilo suppressalis [7] = assay: Insecticidal activity against OP-resistance Chilo suppressalis Hata-f (rice stem borer) assessed as mortality measured after 24 hr; format: functional
Chilo suppressalis [8] = assay: Resistance ratio, LC50 for OP-resistance Chilo suppressalis Hata-f (rice stem borer) to OP-susceptible Chilo suppressalis S (rice stem borer) strain; format: functional
[9] = system: fenitrothion-detoxification activity by binding protein; assay: Inhibition of fenitrothion-detoxification activities by binding protein in OP-resistant Chilo suppressalis Hata-f (rice stem borer) at 1x10'-7M (reference value: 0%); format: organism-based; settings: in vivo, probe fenitrothion
Chilo suppressalis [10] = assay: Inhibition of fenitrothion-detoxification activities by binding protein in OP-resistant Chilo suppressalis Hata-f (rice stem borer); format: organism-based; settings: read-out: I50
[11] = system: fenitrothion-detoxification activity by binding protein; assay: Inhibition of fenitrothion-detoxification activities by binding protein in OP-resistant Chilo suppressalis Hata-f (rice stem borer) at 1x10'-5M (reference value: 0%); format: organism-based; settings: in vivo, probe fenitrothion
[12] = system: fenitrothion-detoxification activity by hydrolysis; assay: Inhibition of fenitrothion-detoxification activities by hydrolysis in OP-resistant Chilo suppressalis Hata-f (rice stem borer) at 1x10'-7M (reference value: 0%); format: organism-based; settings: probe fenitrothion
[13] = system: fenitrothion-detoxification activity by binding protein; assay: Inhibition of fenitrothion-detoxification activities by binding protein in OP-resistant Chilo suppressalis Hata-f (rice stem borer) at 1x10'-4M (reference value: 0%); format: organism-based; settings: in vivo, probe fenitrothion
[14] = system: fenitrothion-detoxification activity by binding protein; assay: Inhibition of fenitrothion-detoxification activities by binding protein in OP-resistant Chilo suppressalis Hata-f (rice stem borer) at 1x10'-6M (reference value: 0%); format: organism-based; settings: in vivo, probe fenitrothion
Chilo suppressalis [15] = assay: Inhibition of fenitrothion-detoxification activities by hydrolysis in OP-resistant Chilo suppressalis Hata-f (rice stem borer); format: organism-based; settings: read-out: I50
[16] = system: fenitrothion-detoxification activity by hydrolysis; assay: Inhibition of fenitrothion-detoxification activities by hydrolysis in OP-resistant Chilo suppressalis Hata-f (rice stem borer) at 1x10'-4M (reference value: 0%); format: organism-based; settings: probe fenitrothion
[17] = system: fenitrothion-detoxification activity by hydrolysis; assay: Inhibition of fenitrothion-detoxification activities by hydrolysis in OP-resistant Chilo suppressalis Hata-f (rice stem borer) at 1x10'-5M (reference value: 0%); format: organism-based; settings: probe fenitrothion
[18] = system: fenitrothion-detoxification activity by hydrolysis; assay: Inhibition of fenitrothion-detoxification activities by hydrolysis in OP-resistant Chilo suppressalis Hata-f (rice stem borer) at 1x10'-6M (reference value: 0%); format: organism-based; settings: probe fenitrothion

## CSc1ccc(OC(=O)N(C)C)cc1C
Chilo suppressalis [1]
  fold change (FC): 72
Chilo suppressalis [2]
  fold change (FC): 22
Chilo suppressalis [3]
  fold change (FC): 188
Chilo suppressalis [4]
  fold change (FC): 0.9
Chilo suppressalis [5]
  fold change (FC): 231

## COP(=O)(OC)Oc1ccc([N+](=O)[O-])c(C)c1 [FENITROXON]
Chilo suppressalis [6]
  LD50: 1.2 mg/kg
Chilo suppressalis [7]
  LD50: 27 mg/kg
Chilo suppressalis [8]
  RatioLC50: 23

## CNc1nc(C)cc(OC(=O)N(C)C)n1
Chilo suppressalis [1]
  fold change (FC): 129
Chilo suppressalis [2]
  fold change (FC): 21
Chilo suppressalis [3]
  fold change (FC): 451
Chilo suppressalis [5]
  fold change (FC): 818

## Cc1cc(OC(=O)N(C)C)nc(N(C)C)n1
[9]
  inhibition at 0.1 µM: 0%
Chilo suppressalis [10]
  IC50: 3.3 µM
[11]
  inhibition at 10 µM: 75%
[12]
  inhibition at 0.1 µM: 0%
[13]
  inhibition at 100 µM: 78.4%
Chilo suppressalis [1]
  fold change (FC): 234
Chilo suppressalis [2]
  fold change (FC): 38
Chilo suppressalis [3]
  fold change (FC): 751
Chilo suppressalis [4]
  fold change (FC): 1
[14]
  inhibition at 1 µM: 19.3%
Chilo suppressalis [5]
  fold change (FC): 1061
Chilo suppressalis [15]
  IC50: 4.5 µM
[16]
  inhibition at 100 µM: 78%
[17]
  inhibition at 10 µM: 66.7%
[18]
  inhibition at 1 µM: 22.2%

## CCN(CC)c1nc(C)cc(OC(=O)N(C)C)n1
Chilo suppressalis [1]
  fold change (FC): 86
Chilo suppressalis [2]
  fold change (FC): 20
Chilo suppressalis [3]
  fold change (FC): 440
Chilo suppressalis [4]
  fold change (FC): 1
Chilo suppressalis [5]
  fold change (FC): 451

## COP(=S)(OC)Oc1ccc([N+](=O)[O-])c(C)c1 [FENITROTHION]
Chilo suppressalis [6]
  LD50: 1.8 mg/kg
Chilo suppressalis [7]
  LD50: 69 mg/kg
Chilo suppressalis [8]
  RatioLC50: 38

## CCN(CC)c1nc(C)cc(OP(=S)(OC)OC)n1 [PIRIMIPHOS METHYL]
Chilo suppressalis [6]
  LD50: 1.5 mg/kg
Chilo suppressalis [7]
  LD50: 1800 mg/kg
Chilo suppressalis [8]
  RatioLC50: 1202

## Cc1cc(OC(=O)N(C)C)no1
Chilo suppressalis [1]
  fold change (FC): 90
Chilo suppressalis [2]
  fold change (FC): 16
Chilo suppressalis [3]
  fold change (FC): 438
Chilo suppressalis [5]
  fold change (FC): 582

## CN(C)C(=O)Oc1cc(-c2ccccc2)on1
Chilo suppressalis [1]
  fold change (FC): 67
Chilo suppressalis [2]
  fold change (FC): 23
Chilo suppressalis [3]
  fold change (FC): 328
Chilo suppressalis [4]
  fold change (FC): 0.9
Chilo suppressalis [5]
  fold change (FC): 419

## CN(C)C(=O)OCc1ccc2c(c1)OCO2
Chilo suppressalis [2]
  fold change (FC): 0.9

## CNC(=O)Oc1ccc(C#N)cc1 [4-CYANOPHENYL METHYLCARBAMATE]
Chilo suppressalis [2]
  fold change (FC): 1.1

## CCN(CC)C(=O)Oc1ccc([N+](=O)[O-])c(C)c1
Chilo suppressalis [2]
  fold change (FC): 2.3

## CCN(CC)C(=O)Oc1ccc(Cl)c(C)c1
Chilo suppressalis [2]
  fold change (FC): 1.8

## CN(C)C(=O)Oc1c(Cl)cc(Cl)c2ccccc12
Chilo suppressalis [2]
  fold change (FC): 1.3

## CN(C)C(=O)Oc1ccc(=O)n(-c2ccccc2)n1
Chilo suppressalis [2]
  fold change (FC): 3.1

## CCN(CC)C(=O)Oc1cc(-c2ccccc2)on1
Chilo suppressalis [2]
  fold change (FC): 4.1

## CCNC(=O)Oc1ccc(C#N)cc1 [4-CYANOPHENYL ETHYLCARBAMATE]
Chilo suppressalis [2]
  fold change (FC): 1.5

## CCOC(=O)/C=C(\C)OC(=O)N(C)C
Chilo suppressalis [2]
  fold change (FC): 1

## CCOC(=O)Nc1ccccc1 [ETHYL PHENYLCARBAMATE]
Chilo suppressalis [2]
  fold change (FC): 0.8

## CCSCCOC(=O)N(C)C [2-(ETHYLTHIO)ETHYL DIMETHYLCARBAMATE]
Chilo suppressalis [2]
  fold change (FC): 1

## CCNC(=O)Oc1ccc([N+](=O)[O-])c(C)c1
Chilo suppressalis [2]
  fold change (FC): 0.7

## Cc1ccccc1OC(=O)N(C)C [O-TOLYL DIMETHYLCARBAMATE]
Chilo suppressalis [2]
  fold change (FC): 4.3

## CNC(=O)Oc1ccc(SC)cc1 [4-(METHYLTHIO)PHENYL METHYLCARBAMATE]
Chilo suppressalis [2]
  fold change (FC): 1.1

## CSc1ccc(OC(=S)N(C)C)cc1
Chilo suppressalis [2]
  fold change (FC): 2.3

## Cc1cc(OC(=O)N(C)C)ccc1[N+](=O)[O-]
Chilo suppressalis [1]
  fold change (FC): 67
Chilo suppressalis [2]
  fold change (FC): 23
Chilo suppressalis [3]
  fold change (FC): 196
Chilo suppressalis [4]
  fold change (FC): 0.7
Chilo suppressalis [5]
  fold change (FC): 207

## CCNC(=O)Oc1cccc2ccccc12
Chilo suppressalis [2]
  fold change (FC): 1

Source: ChEMBL document CHEMBL3044873, “Aryl N, N-Dimethylcarbamates, Synergists for Organophosphorus Insecticides against Organophos-phorusresistant Rice Stem Borers” (J Pestic Sci, 1990)
